Results on 65 compounds are retold here after ChEMBL document CHEMBL4014333, “Discovery of Small Molecules for Repressing Cap-Independent Translation of Human Vascular Endothelial Growth Factor (hVEGF) as Novel Antitumor Agents” (J Med Chem, 2017).

The species entered for assay [1] is Homo sapiens. Put plainly: Binding affinity to biotin-labeled human wild type internal ribosome entry site A RNA G-quadruplex by SPR analysis. On the technique in general: In SPR one partner is held on a chip, and binding of the other changes the refractive index at the surface.
For assay [2], the species on record is Homo sapiens. The assay is described as follows: Binding affinity to biotin-labeled human 5'-UGAUGAGUGUGAGGAGGA-3' RNA G-quadruplex by SPR analysis.
A short description of assay [3]: Binding affinity to biotin-labeled DNA hairpin (unknown origin) by SPR analysis.

The source made the active and inactive calls. No rule for the calls is given here. Numbered stars: 1 amine (or outer) side, 2 acyl side, 3 side chain; on linkers, the order of the positions; unused ones are H or OH. Square brackets hold non-standard residues; d marks the D form. Peptide text beside a SMILES is read from it. X1 = CN1CCC(COc2ccc3oc4c(N(CC(=O)[*:2])[*:1])c5ccccc5nc4c3c2)CC1

Consider `CN1CCC(COc2ccc3oc4c(NCC(=O)NCC(=O)NC(Cc5c[nH]cn5)C(=O)O)c5ccccc5nc4c3c2)CC1` (centres undefined), for which the result in the assay filed under Homo sapiens [1] was Active.
Consider `CN(C)CCNc1c2ccccc2[n+](C)c2c1[nH]c1ccc(F)cc12`, for which the outcome (in the assay filed under Homo sapiens [2]; in assay [3]; in the assay filed under Homo sapiens [1]) was Active.
Consider `C[n+]1c2ccccc2c(NCC(=O)NC(Cc2ccccc2)C(=O)NC(CCCNC(=N)N)C(=O)O)c2oc3ccccc3c21` (centres undefined), for which the outcome in the assay filed under Homo sapiens [1] was Active.
For the compound `C[n+]1c2ccccc2c(NCCN2CCOCC2)c2oc3ccc(OCC4CC[N+](C)(C)CC4)cc3c21`, the outcome (in the assay listed under Homo sapiens [2]; in assay [3]; in the assay listed under Homo sapiens [1]) was Active.
Turning to `CCN(CC)CCNc1c2ccccc2[n+](C)c2c1oc1ccc(OCC[N+]3(C)CCCCC3)cc12`, the outcome (in the assay filed under Homo sapiens [2]; in assay [3]; in the assay listed under Homo sapiens [1]) was Active.
In the case of `CN1CCC(COc2ccc3oc4c(NCC(=O)NCC(=O)NC(CCCNC(=N)N)C(=O)NC(Cc5ccc(O)cc5)C(=O)O)c5ccccc5nc4c3c2)CC1` (centres undefined), the result in the assay filed under Homo sapiens [1] was Active.
In the case of `COc1ccc2cc3[n+](cc2c1OCCCn1cc[n+](C)c1)CCc1cc2c(cc1-3)OCO2`, the result in the assay listed under Homo sapiens [1] was Active.
For the compound `CN(C)CCNc1c2ccccc2[n+](C)c2c1oc1ccc(OCC[N+]3(C)CCCCC3)cc12`, the outcome (in the assay filed under Homo sapiens [2]; in assay [3]; in the assay filed under Homo sapiens [1]) was Active.
In the case of `CCN(CC)CCCNc1c2ccccc2[n+](C)c2c1oc1ccc(OCCC[N+](C)(C)C)cc12`, the result (in the assay listed under Homo sapiens [2]; in assay [3]; in the assay filed under Homo sapiens [1]) was Active.
`C[n+]1c2ccccc2c(NCC(=O)NCC(=O)NC(Cc2c[nH]cn2)C(=O)O)c2oc3ccccc3c21` (centres undefined): in the assay filed under Homo sapiens [1], the outcome was Active.
The same measure, in the same setting: under `CN(C)CCCNc1c2ccccc2nc2c1oc1c(OCCN(C)C)cccc12` stands “Active”.
Take `C[n+]1c2ccccc2c(NCC(=O)NCC(=O)NCC(=O)O)c2oc3ccccc3c21`: the result (in the assay filed under Homo sapiens [2]; in assay [3]; in the assay filed under Homo sapiens [1]) was Active.
Consider `C[n+]1c2ccccc2c(NCCN2CCOCC2)c2oc3ccc(OCCC[N+](C)(C)C)cc3c21`, for which the outcome (in the assay filed under Homo sapiens [2]; in assay [3]; in the assay filed under Homo sapiens [1]) was Active.
As for `CN(C)CCCNc1c2ccccc2nc2c1oc1cc(OCCCN(C)C)ccc12`, the result (in the assay filed under Homo sapiens [2]; in assay [3]; in the assay listed under Homo sapiens [1]) was Active.
`CCN(CC)CCNc1c2ccccc2[n+](C)c2c1oc1ccc(OCC[N+]3(C)CCOCC3)cc12`: the outcome (in the assay filed under Homo sapiens [2]; in assay [3]; in the assay filed under Homo sapiens [1]) was Active.
As to `COc1ccc2cc3[n+](cc2c1OCCN)CCc1cc2c(cc1-3)OCO2`, the result in the assay filed under Homo sapiens [1] was Active.
In the case of `C[n+]1c2ccccc2c(NCCN2CCCCC2)c2oc3ccc(OCC4CC[N+](C)(C)CC4)cc3c21`, the result (in the assay filed under Homo sapiens [2]; in assay [3]; in the assay listed under Homo sapiens [1]) was Active.
`COc1ccc2cc3[n+](cc2c1OCCCCC[n+]1ccccc1)CCc1cc2c(cc1-3)OCO2`: the outcome in the assay listed under Homo sapiens [1] was Active.
Regarding `CN1CCC(COc2ccc3oc4c(NCC(=O)NCC(=O)NCC(=O)O)c5ccccc5nc4c3c2)CC1`, in the assay filed under Homo sapiens [1], the result was Active.
With `CN1CCC(COc2ccc3oc4c(NCC(=O)NCC(=O)NC(CCCNC(=N)N)C(=O)NC(CCC(=O)O)C(=O)O)c5ccccc5nc4c3c2)CC1` (centres undefined), the result in the assay filed under Homo sapiens [1] was Active.
For `C[n+]1c2ccccc2c(NCC(=O)NCC(=O)NC(Cc2ccccc2)C(=O)O)c2oc3ccccc3c21` (centres undefined), the outcome (in the assay listed under Homo sapiens [2]; in assay [3]; in the assay listed under Homo sapiens [1]) was Active.
`COc1ccc2cc3[n+](cc2c1OCCC[n+]1cccc(C)c1)CCc1cc2c(cc1-3)OCO2`: in the assay filed under Homo sapiens [1], the outcome was Active.
For the compound `CN1CCC(COc2ccc3oc4c(NCC(=O)NC(Cc5c[nH]cn5)C(=O)NC(CCCNC(=N)N)C(=O)O)c5ccccc5nc4c3c2)CC1` (centres undefined), in the assay filed under Homo sapiens [1], the result was Active.
The same measure, in the same setting: for `COc1ccc2cc3[n+](cc2c1NCCO)CCc1cc2c(cc1-3)OCO2` the value was “Active”; for `CN(C)CCCNc1c2ccccc2nc2c1oc1ccc(OCC3CCN(C)CC3)cc12`, “Active”.
Take `CN(C)CCCNc1c2ccccc2[n+](C)c2c1[nH]c1ccc(F)cc12`: the outcome (in the assay listed under Homo sapiens [2]; in assay [3]; in the assay filed under Homo sapiens [1]) was Active.
With `C[n+]1c2ccccc2c(NCC(=O)NCC(=O)NC(CCCCN)C(=O)O)c2oc3ccccc3c21` (centres undefined), the result in the assay filed under Homo sapiens [1] was Active.
Same read-out and setting: under `COc1ccc2cc3[n+](cc2c1OCCC[n+]1ccc(N(C)C)cc1)CCc1cc2c(cc1-3)OCO2` stands “Active”; under `CN(C)CCCCOc1cccc2c1oc1c(NCCCN(C)C)c3ccccc3nc12`, “Active”.
On the same count and under the same terms, for `CN(C)CCNc1c2ccccc2[n+](C)c2c1[nH]c1cc(F)c(F)cc12` the value was “Active”; for `CN(C)CCCNc1c2ccccc2nc2c1oc1ccc(OCCCN(C)C)cc12`, “Active”.
Same read-out and setting: under `CN1CCC(COc2ccc3oc4c(NCC(=O)NCC(=O)NC(CCCNC(=N)N)C(=O)NC(CCC(N)=O)C(=O)O)c5ccccc5nc4c3c2)CC1` (centres undefined) stands “Active”; under `CN(C)CCNC(=O)COc1ccc2oc3c(NCCN(C)C)c4ccccc4[n+](C)c3c2c1`, “Active”; under `C[n+]1c2ccccc2c(NCCCN2CCCCC2)c2oc3ccc(OCC(=O)NCCCN4CCCCC4)cc3c21`, “Active”.
For the compound `CN(C)CCNc1c2ccccc2nc2c1oc1ccc(OCCN(C)C)cc12`, in the assay filed under Homo sapiens [1], the outcome was Active.
In the case of `CN1CCC(COc2ccc3oc4c(NCC(=O)NCC(=O)NC(CCCNC(=N)N)C(=O)NC(Cc5c[nH]cn5)C(=O)O)c5ccccc5nc4c3c2)CC1` (centres undefined), in the assay listed under Homo sapiens [1], the outcome was Active.
On the same count and under the same terms, under `C[n+]1c2ccccc2c(NCCN2CCOCC2)c2oc3ccc(OCC(=O)NCCN4CCOCC4)cc3c21` stands “Active”; under `COc1ccc2cc3[n+](cc2c1NCCN1CCCCC1)CCc1cc2c(cc1-3)OCO2`, “Active”.
As to `CCN(CC)CCOc1ccc(Nc2nc(-c3ccccc3NC(=O)CCCl)nc3ccccc23)cc1`, the result in the assay listed under Homo sapiens [1] was Active.
Still for that read-out and setting: under `COc1ccc2cc3[n+](cc2c1OCCC[n+]1cccc(F)c1)CCc1cc2c(cc1-3)OCO2` stands “Active”; under `CN(C)CCCNc1c2ccccc2[n+](C)c2c1[nH]c1ccccc12`, “Active”; under `CN1CCC(COc2ccc3oc4c(NCC(=O)NCC(=O)NC(CCCNC(=N)N)C(=O)NC(Cc5c[nH]c6ccccc56)C(=O)O)c5ccccc5nc4c3c2)CC1` (centres undefined), “Active”.
The same measure, in the same setting: under `COc1ccc2cc3[n+](cc2c1OCCCn1ccc(N)nc1=O)CCc1cc2c(cc1-3)OCO2` stands “Active”; under `CN1CCC(COc2ccc3oc4c(NCC(=O)NCC(=O)NC(CCCNC(=N)N)C(=O)NC(Cc5ccccc5)C(=O)O)c5ccccc5nc4c3c2)CC1` (centres undefined), “Active”.
In the case of `COc1ccc2cc3[n+](cc2c1NCCN(C)C)CCc1cc2c(cc1-3)OCO2`, the result in the assay filed under Homo sapiens [1] was Active.
The same measure, in the same setting: for `COc1ccc2cc3[n+](cc2c1NCCN1CCOCC1)CCc1cc2c(cc1-3)OCO2` the value was “Active”; for `C[n+]1c2ccccc2c(NCC(=O)NC(CCCNC(=N)N)C(=O)O)c2oc3ccccc3c21` (centres undefined), “Active”.
Regarding `COc1ccc2cc3[n+](cc2c1OCCC[n+]1ccccc1)CCc1cc2c(cc1-3)OCO2`, the result in the assay filed under Homo sapiens [1] was Active.
Same read-out and setting: under `CN1CCC(COc2ccc3oc4c(NCC(=O)NCC(=O)NC(CCCNC(=N)N)C(=O)O)c5ccccc5nc4c3c2)CC1` (centres undefined) stands “Active”.
Take `C[n+]1c2ccccc2c(NCCCN2CCOCC2)c2oc3ccc(OCC[N+]4(C)CCCCC4)cc3c21`: the outcome in the assay listed under Homo sapiens [1] was Active.
Same read-out and setting: under `CN1CCC(COc2ccc3oc4c(NCC(=O)NCC(=O)NC(CCCNC(=N)N)C(=O)NC(Cc5c[nH]cn5)C(=O)NCC(=O)O)c5ccccc5nc4c3c2)CC1` (centres undefined) (H-[X1]GRHG-OH; configuration not given here) stands “Active”; under `CN1CCC(COc2ccc3oc4c(NCC(=O)NC(CCCCN)C(=O)NC(CCCNC(=N)N)C(=O)O)c5ccccc5nc4c3c2)CC1` (centres undefined), “Active”; under `C[n+]1c2ccccc2c(NCCCN2CCOCC2)c2oc3ccc(OCC(=O)NCCN4CCOCC4)cc3c21`, “Active”.
On the same count and under the same terms, under `COc1ccc2cc3[n+](cc2c1NCCCCCCN)CCc1cc2c(cc1-3)OCO2` stands “Active”; under `O=C1/C(=C\c2ccc(N3CCOCC3)cc2)CC/C1=C\c1cccnc1`, “Active”; under `C[n+]1c2ccccc2c(NCC(=O)NC(CCCCN)C(=O)NC(CCCNC(=N)N)C(=O)O)c2oc3ccccc3c21` (centres undefined), “Active”.
Same read-out and setting: under `C[n+]1c2ccccc2c(NCCO)c2[nH]c3ccccc3c21` stands “Active”; under `CCN(CC)CCOc1ccc(Nc2nc(-c3ccccc3N)nc3ccccc23)cc1`, “Active”; under `CC(NC(=O)C(CCCNC(=N)N)NC(=O)CNC(=O)CNc1c2ccccc2nc2c1oc1ccc(OCC3CCN(C)CC3)cc12)C(=O)O` (centres undefined), “Active”.
In the case of `COc1ccc2cc3[n+](cc2c1OCCCN)CCc1cc2c(cc1-3)OCO2`, the result in the assay filed under Homo sapiens [1] was Active.
On the same count and under the same terms, for `CN(C)CCCNc1c2ccccc2nc2c1oc1cc(OCCN(C)C)ccc12` the value was “Active”.
Still for that read-out and setting: for `COc1ccc2cc3[n+](cc2c1OCCCCCC[n+]1ccccc1)CCc1cc2c(cc1-3)OCO2` the value was “Active”; for `CN(C)CCCNc1c2ccccc2nc2c1oc1ccc(OCCN(C)C)cc12`, “Active”.
On the same count and under the same terms, under `COc1ccc2cc3[n+](cc2c1OCCCOc1ccncc1)CCc1cc2c(cc1-3)OCO2` stands “Active”.
`CN1CCC(COc2ccc3oc4c(NCC(=O)NCC(=O)NC(CCCCN)C(=O)O)c5ccccc5nc4c3c2)CC1` (centres undefined): the result in the assay filed under Homo sapiens [1] was Active.
